Test results from paper PMC6284401 (Journal of peptide science : an official publication of the …, 2018).

What was measured:
MCF-7 cells = test: Confocal microscopy binding, MCF-7 cells; format: cell-based; conditions: 0.5 μM, 30 min
[1] = cited from earlier work
p-HER2 = test: Western blot of total and phosphorylated HER2, BT-474; format: cell-based; conditions: BT-474 cells, 1.5 μM, 36 h
[2] = human serum, HPLC AUC vs time
[3] = mouse, in vivo

Compound: N=C(N)NCCC[C@@H]1NC(=O)[C@H]2CCCN2C(=O)[C@@H]2CCCN2C(=O)[C@H](CCCCNC(=O)c2ccc3c(c2)C2(OC3=O)c3ccc(O)cc3Oc3cc(O)ccc32)NC(=O)C[C@H](c2cccc3ccccc23)NC(=O)[C@H](Cc2ccccc2)NC(=O)[C@H](CC(=O)O)NC(=O)[C@H](CC(=O)O)NC(=O)[C@H](Cc2ccccc2)NC(=O)C[C@H](c2cccc3ccccc23)NC1=O [compound 44, Cyclo(PpR-(R)Anapa-FDDF-(R)Anapa-K-(6-FAM)]
- Binding to cells by confocal microscopy (green fluorescence) (MCF-7 cells): does not bind significantly

Compound: Cyclo(PpR-((R) Anapa)FDDF-((R) Anapa)R [compound 18]
- Stability in serum in vitro [1]: more than 48 h

Compound: N=C(N)NCCC[C@H]1NC(=O)C[C@H](c2cccc3ccccc23)NC(=O)[C@@H](Cc2ccccc2)NC(=O)[C@@H](CC(=O)O)NC(=O)[C@H]2CCCN2C(=O)[C@@H]2CCCN2C(=O)[C@@H](CCCNC(=N)N)NC(=O)C[C@H](c2cccc3ccccc23)NC(=O)[C@@H](Cc2ccccc2)NC(=O)[C@@H](CC(=O)O)NC1=O [compound 32, Cyclo(Ppdf-(R)Anapa-rdf-(R)Anapa-r]
- Level of p-HER2 (Western blot) (p-HER2): decreased the level of p-HER2
- Total-HER2 protein levels (Western blot) (p-HER2): did not show any significant effect
- Time stable in serum [2]: 48 h
- Compound detected after 12 h compared to the 15 min [3]: ~70%
